Test results published in US20240181022A1, “AMURINS LYSINS, AND LYSIN-ANTIMICROBIAL PEPTIDE (AMP) CONSTRUCTS ACTIVE AGAINST GRAM-NEGATIVE BACTERIA” (priority 2021, published 2024).
Values after ≈ are worked out from the molar mass of the structure shown. Where two headings read alike, the source gives them in different places. Where a SMILES comes first, the peptide text is derived from it. Where no end group is shown, it is not given here. [ ]: non-standard residue; d: D form.

Columns and labels:
Achromobacter spp. = experiment: MIC by broth microdilution against Achromobacter spp.; assay type: cell-based; conditions: Tables 8-12
Experimental: (§1) MIC values were determined using a modification of the standard broth microdilution reference method defined by the Clinical and Laboratory Standards Institute (CLSI), CLSL. 2015. Methods for Dilution Antimicrobial Susceptibility Tests for Bacteria That Grow Aerobically; Approved Standard-10th Edition. Clinical and Laboratory Standards Institute, Wayne, PA. The modification was based on the replacement of Mueller Hinton Broth with either CAA media (with and without NaCl) or CAA supplemented with 2.5% human serum. MIC is the minimum concentration of peptide sufficient to suppress at least 80% of the bacterial growth compared to control.
(§2) The MICs for were determined as described below using the broth microdilution method for meropenem, GN370, AM1, AM2, and AM3. The results are shown below in Tables 8-12.

A. dolens [1] = experiment: MIC by broth microdilution against A. dolens; assay type: cell-based, Achromobacter dolens; conditions: A. dolens isolates; for MIC Range: in µg/mL
Experimental: as §1
(§3) Based on these nine most prevalent strains, direct lytic agents, including GN370, AM1, AM2, and AM3, were evaluated against various isolates from each of the 9 strains. MICs and MBECs (Example 3) were determined, and a sputum inhibition test was conducted, as described below in Example 5.
as §2

A. dolens [2] = assay type: cell-based, Achromobacter dolens
Experimental: The MBEC (after 2-hour treatments) was determined as described in Jones and Wozniak, PsI Produced by Mucoid Pseudomonas aeruginosa Contributes to the Establishment of Biofilms and Immune Evasion, Am. Soc. Microbiol. 2017, 8(3):e00864-17. Meropenem and tobramycin were included as controls and were both poorly active, with MBEC90 values of >256 μg/mL (data not shown).

S. maltophilia [3] = tested on: S. maltophilia
Experimental: (§4) Biofilms are then washed and treated with e.g., a 2-fold dilution series of the lysin in TSBg at e.g., 37° C. for 24 hours. After treatment, wells are washed, air-dried at e.g., 37° C. and stained with e.g., 0.05% crystal violet for 10 minutes.
(§5) The antibiofilm activity of GN370, AM1, AM2, and AM3 was evaluated against various Gram-negative bacteria prevalent in cystic fibrosis patients, including P. aeruginosa, S. maltophilia, and A. xylosoxidans.
(§6) The MBEC (after 2-hour treatments) was determined as described in Jones and Wozniak, PsI Produced by Mucoid Pseudomonas aeruginosa Contributes to the Establishment of Biofilms and Immune Evasion, Am. […] Microbiol.

B. multivorans [4] = tested on: B. multivorans
Experimental: as §4, §5, §6

A. xylosoxidans = conditions: for antibiofilm activity (MBEC) against A. xylosoxidans: 2-hour treatments
Experimental: as §4, §5, §6

[5] = tested on: Gram-negative bacteria (including P. aeruginosa, E. cloacae, K. pneumoniae, E. coli, and A. baumannii); experiment: Inner membrane depolarization (diSC3-5 release); assay type: cell-based; conditions: equivalent or superior to melittin, LL37, RI-18, and PMBN
Excerpt: The mechanism of action of Chp peptides disclosed herein can also be evaluated by measuring the depolarization of the inner membrane of Gram-negative bacteria, including MDR and XDR strains. The inner membrane comprises […] phospholipids such as cardiolipin, phosphatidylglycerol, and phosphatidylserine. This creates a net negative charge at physiological pH, which is believed to enhance the binding of cationic peptides, including the Chp peptides disclosed herein. Upon permeabilization of the outer membrane, the ability of Chp peptides to induce dissipation of the cytoplasmic membrane electrical potential gradient (Ay) may be examined, for example by following the release of 3,3′-dipropylthiadicarbocyanine (diSC3-5) as a function of time compared to an untreated control. DiSC3-5 is a fluorophore that is a caged cation concentrated within the bacterial inner membrane and under the influence of the bacterial membrane electrical potential gradient. At high concentrations, diSC3-5 self-quenches, leading to the suppression of fluorescence. When the inner membrane deteriorates or becomes leaky for cations, including protons, the Δψ dissipates, which leads to a release of diSC3-5 and a subsequent increase in fluorescence. […] Without wishing to be bound by theory, it is believed that the adsorption and binding of Chp peptides to the inner membrane and insertion into the lipid bilayer results in membrane permeabilization and pore/ion channel formation, which is concomitant with the collapse of the membrane's electrical potential.

P. apista = experiment: MIC by broth microdilution against P. apista; assay type: cell-based, Pandoraea apista; conditions: P. apista isolates
Experimental: as §1, §3, §2

B. multivorans [6] = experiment: MIC by broth microdilution against B. multivorans; assay type: cell-based, Burkholderia multivorans; conditions: B. multivorans isolates
Experimental: as §1, §3, §2

M. scrofulaceum = experiment: MIC against M. scrofulaceum; assay type: cell-based, Mycobacterium scrofulaceum; conditions: M. scrofulaceum (ATCC 19981); CAAT media
P. aeruginosa [7] = conditions: for antibiofilm activity (MBEC) against P. aeruginosa: 2-hour treatments
S. maltophilia [8] = experiment: Serial passage resistance development study, S. maltophilia; assay type: cell-based, Stenotrophomonas maltophilia; conditions: S. maltophilia, day 28, triplicate
P. aeruginosa [9] = conditions: for MIC Range: in µg/mL; for MIC: P. aeruginosa test organism of the sputum time-kill assay; for activity (MIC) against P. aeruginosa isolates: all tested isolates, Tables 8-12
A. ruhlandii = experiment: MIC by broth microdilution against A. ruhlandii; assay type: cell-based, Achromobacter ruhlandii; conditions: A. ruhlandii isolates
Experimental: as §1, §3, §2

M. kansasii = experiment: MIC against M. kansasii; assay type: cell-based, Mycobacterium kansasii; conditions: M. kansasi (ATCC 12478); CAAT media
M. smegmatis = experiment: MIC against M. smegmatis; assay type: cell-based, Mycobacterium smegmatis; conditions: M. smegmatis (MC 155); CAAT media
B. gladioli = experiment: MIC by broth microdilution against B. gladioli; assay type: cell-based, Burkholderia gladioli; conditions: B. gladioli isolates
Experimental: as §1, §3, §2

[10] = α-hemolytic P. aeruginosa isolates (n = 13)

Molecule: MRLKMARRRYRLPRRRSRRLFSRTALRMHPRNRLRRIMRGGIRF [AM1]
- activity (MIC) against Achromobacter spp. (Achromobacter spp.): highly active
- MIC50 (A. dolens [1]): 1 µg/mL
- MIC90 (A. dolens [1]): 2 µg/mL
- MIC Range (A. dolens [1]): 0.06-4
- MBEC50 (A. dolens [2]): 2 µg/mL
- MBEC90 (A. dolens [2]): 4 µg/mL
- MBEC Range (A. dolens [2]): 1 to 8 µg/mL
- MBEC50 (S. maltophilia [3]): 1 µg/mL
- MBEC90 (S. maltophilia [3]): 2 µg/mL
- MBEC Range (S. maltophilia [3]): 0.25 to 2 µg/mL
- antibiofilm activity (MBEC) against S. maltophilia (S. maltophilia [3]; 2-hour treatments): highly active
- MBEC50 (B. multivorans [4]): 2 µg/mL
- MBEC90 (B. multivorans [4]): 4 µg/mL
- MBEC Range (B. multivorans [4]): 2 to 4 µg/mL
- antibiofilm activity (MBEC) against B. multivorans (B. multivorans [4]; 2-hour treatments): highly active
- MBEC50 (A. xylosoxidans): 0.5 µg/mL
- MBEC90 (A. xylosoxidans): 1 µg/mL
- MBEC Range (A. xylosoxidans): 0.125 to 2 µg/mL
- antibiofilm activity (MBEC) against A. xylosoxidans (A. xylosoxidans): highly active
- inner membrane depolarization (diSC3-5) [5]: dose-dependent increase in membrane depolarization
- MIC50 (P. apista): 64 µg/mL
- MIC90 (P. apista): > 128 µg/mL
- MIC50 (B. multivorans [6]): 128 µg/mL
- MIC90 (B. multivorans [6]): > 128 µg/mL
- MIC (M. scrofulaceum): 0.5 µg/mL
- MBEC50 (P. aeruginosa [7]): 0.5 µg/mL
- MBEC90 (P. aeruginosa [7]): 1 µg/mL
- MBEC Range (P. aeruginosa [7]): 0.064 to 2 µg/mL
- antibiofilm activity (MBEC) against P. aeruginosa (P. aeruginosa [7]): highly active
- change in MIC over serial passage (S. maltophilia [8]): no increase in MIC
- AM1 MIC50 (P. aeruginosa [9]): 0.25 µg/mL
- AM1 MIC90 (P. aeruginosa [9]): 0.5 µg/mL
- MIC50 (P. aeruginosa [9]): 0.25 µg/mL
- MIC90 (P. aeruginosa [9]): 0.5 µg/mL
- MIC Range (P. aeruginosa [9]; MDR P. aeruginosa isolates (n = 13)): 0.016-0.5
- MIC50 (P. aeruginosa [9]; P. aeruginosa isolates): 0.25 µg/mL
- MIC90 (P. aeruginosa [9]; P. aeruginosa isolates): 0.5 µg/mL
- MIC (P. aeruginosa [9]): (MIC = 1)
- activity (MIC) against P. aeruginosa isolates (P. aeruginosa [9]): highly active
- AM1 MIC Range (P. aeruginosa [9]; carbapenem-resistant P. aeruginosa isolates (n = 17)): 0.016-0.5
- MIC50 (P. aeruginosa [9]; [10]): 0.25 µg/mL
- MIC90 (P. aeruginosa [9]; [10]): 0.5 µg/mL
- MIC50 (A. ruhlandii): 1 µg/mL
- MIC90 (A. ruhlandii): 4 µg/mL
- MIC Range (A. ruhlandii; in µg/mL): 0.125-8
- MIC (M. kansasii): 2 µg/mL
- MIC (M. smegmatis): 4 µg/mL
- MIC50 (B. gladioli): 8 µg/mL
- MIC90 (B. gladioli): 64 µg/mL
- MIC Range (B. gladioli; in µg/mL): 0.03-128

Molecule: CC[C@H](C)[C@H](NC(=O)[C@@H](CCCNC(=N)N)NC(=O)[C@H](Cc1ccccc1)NC(=O)CNC(=O)CNC(=O)[C@@H](CCCNC(=N)N)NC(=O)[C@H](CCSC)NC(=O)[C@@H]1CCCN1C(=O)[C@@H](CCCNC(=N)N)NC(=O)[C@H](C)NC(=O)[C@@H](CCCNC(=N)N)NC(=O)[C@H](CC(C)C)NC(=O)[C@H](CC(N)=O)NC(=O)[C@@H](CCCNC(=N)N)NC(=O)[C@@H](CCCCN)NC(=O)[C@@H](CCCCN)NC(=O)[C@@H](NC(=O)[C@H](CC(N)=O)NC(=O)[C@@H](NC(=O)[C@H](C)NC(=O)CNC(=O)[C@@H](CCCNC(=N)N)NC(=O)[C@@H](NC(=O)[C@H](Cc1ccccc1)NC(=O)[C@@H](NC(=O)[C@@H](CCCCN)NC(=O)[C@@H](CCCNC(=N)N)NC(=O)[C@H](CO)NC(=O)[C@@H](CCCCN)NC(=O)[C@@H](CCCCN)NC(=O)[C@@H](CCCCN)NC(=O)[C@H](CO)NC(=O)[C@H](CC(C)C)NC(=O)[C@@H](CCCCN)NC(=O)[C@@H](CCCNC(=N)N)NC(=O)[C@@H](CCCNC(=N)N)NC(=O)[C@@H](CCCCN)NC(=O)[C@@H](N)CCSC)[C@@H](C)CC)[C@@H](C)O)C(C)C)C(C)C)C(=O)O [AM3] (H-M[dK][dR][dR][dK]LS[dK][dK][dK]S[dR][dK]IFT[dR]GAVNV[dK][dK][dR]NL[dR]A[dR]PM[dR]GGF[dR]I-OH; N-terminus and C-terminus assumed)
- activity (MIC) against Achromobacter spp. (Achromobacter spp.): variably active
- MIC50 (A. dolens [1]): 2 µg/mL (≈ 0.438 µM)
- MIC90 (A. dolens [1]): 8 µg/mL (≈ 1.75 µM)
- MIC Range (A. dolens [1]): 0.016-16
- MBEC50 (A. dolens [2]): 2 µg/mL
- MBEC90 (A. dolens [2]): 16 µg/mL
- MBEC Range (A. dolens [2]): 1 to 32 µg/mL
- MBEC50 (S. maltophilia [3]): 1 µg/mL
- MBEC90 (S. maltophilia [3]): 2 µg/mL
- MBEC Range (S. maltophilia [3]): 0.125 to 16 µg/mL
- MBEC50 (B. multivorans [4]): 2 µg/mL
- MBEC90 (B. multivorans [4]): 4 µg/mL
- MBEC Range (B. multivorans [4]): 1 to 8 µg/mL
- MBEC50 (A. xylosoxidans): 1 µg/mL
- MBEC90 (A. xylosoxidans): 2 µg/mL
- MBEC Range (A. xylosoxidans): 0.125 to 4 µg/mL
- antibiofilm activity (MBEC) against A. xylosoxidans (A. xylosoxidans): primarily active
- inner membrane depolarization (diSC3-5) [5]: dose-dependent increase in membrane depolarization
- MIC50 (P. apista): > 128 µg/mL
- MIC90 (P. apista): > 128 µg/mL
- MIC50 (B. multivorans [6]): > 128 µg/mL
- MIC90 (B. multivorans [6]): > 128 µg/mL
- MIC (M. scrofulaceum): 2 µg/mL (≈ 0.438 µM)
- MBEC50 (P. aeruginosa [7]): 0.125 µg/mL
- MBEC90 (P. aeruginosa [7]): 1 µg/mL
- MBEC Range (P. aeruginosa [7]): 0.016 to 1 µg/mL
- antibiofilm activity (MBEC) against P. aeruginosa (P. aeruginosa [7]): primarily active
- change in MIC over serial passage (S. maltophilia [8]): no increase in MIC
- MIC50 (P. aeruginosa [9]; P. aeruginosa isolates): 0.06 µg/mL (≈ 0.0131 µM)
- MIC90 (P. aeruginosa [9]; P. aeruginosa isolates): 0.25 µg/mL (≈ 0.0547 µM)
- MIC Range (P. aeruginosa [9]; P. aeruginosa isolates): 0.016-1
- MIC (P. aeruginosa [9]): (MIC = 0.125)
- activity (MIC) against P. aeruginosa isolates (P. aeruginosa [9]): highly active
- MIC50 (A. ruhlandii): 1 µg/mL (≈ 0.219 µM)
- MIC90 (A. ruhlandii): > 128 µg/mL
- MIC (M. kansasii): 1 µg/mL (≈ 0.219 µM)
- MIC (M. smegmatis): 1 µg/mL (≈ 0.219 µM)
- MIC50 (B. gladioli): 32 µg/mL (≈ 7 µM)
- MIC90 (B. gladioli): 128 µg/mL (≈ 28 µM)
